Assay results reported in patent US12215116B2, “Arginase inhibitors and methods of use” (Merck Sharp & Dohme LLC, priority 2018, dated 2025).

molecular target: T1, Arginase (ARG1 enzyme) (Homo sapiens, UniProt P05089); experiment: Arginase Thioornithine Generating Assay (TOGA); type: biochemical; details: 1.88 nM arginase, thioarginine substrate, fluorescence readout
T1 construct: made in house; host or cells: Escherichia coli
T1 sequence (P05089 1-322): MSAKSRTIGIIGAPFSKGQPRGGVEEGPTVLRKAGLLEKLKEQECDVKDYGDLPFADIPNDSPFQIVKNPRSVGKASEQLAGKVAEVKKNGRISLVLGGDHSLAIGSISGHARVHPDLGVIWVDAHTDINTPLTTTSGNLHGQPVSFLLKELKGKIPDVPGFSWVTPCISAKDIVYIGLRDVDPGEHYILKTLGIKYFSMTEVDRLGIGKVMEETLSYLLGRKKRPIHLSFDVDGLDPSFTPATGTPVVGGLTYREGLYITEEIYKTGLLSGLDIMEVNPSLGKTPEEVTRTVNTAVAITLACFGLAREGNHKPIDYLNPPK
Description: Arginase Thioornithine Generating Assay (TOGA)
Compounds were serially diluted in ten 3-fold steps in DMSO starting from 10 mM DMSO stocks. Compound dilutions or DMSO alone were then dispensed from the dilution plate into a Greiner black 384-well assay plate (catalog #781086) using an Echo 555 acoustic liquid handler (Labcyte).
Arginase protein was recombinantly expressed in Escherichia coli. Purified protein was then diluted in assay buffer (50 mM Tris pH 7.5, 50 mM NaCl, 1 mM manganese chloride, 0.05% bovine serum albumin to obtain a final Arginase concentration of 1.88 nM. Arginase solution (20 μL) or buffer alone (20 μL) were dispensed to wells of the assay plate using a BioRAPTR liquid dispenser (Beckman Coulter). Assay plates containing compound and ARG1 enzyme were incubated at room temperature for 30 minutes. Afterwards, 5 μL of 2.5 mM thioarginine (Cayman Chemicals) in assay buffer were added to each well of the assay plate using a BioRAPTR liquid dispenser. Plates were incubated at room temperature for 60 minutes and reactions were quenched by addition of 15 μL of […] 7-Diethylamine-3-(4-maleimidophenyl)-4-methylcoumarin (Sigma Chemical) in 70% ethanol. Plates were briefly shaken to mix and the fluorescence was measured in an Spectramax plate reader (Molecular Devices) with a 410 nm excitation wavelength and an 490 nm emission wavelength.
Potencies were calculated by […] to the four parameter logistic IC50 equation.

SMILES | IC50 [nM]
CCN(CC)[C@H]1CN[C@H](C(=O)O)[C@@H]1CCCB(O)O [Example 28, (2S,3S,4R)-3-(3-boronopropyl)-4-(diethylamino)pyrrolidine-2-carboxylic acid] | 3290
CN[C@H]1CN[C@H](C(=O)O)[C@@H]1CCCB(O)O [Example 29, (2S,3R,4R)-3-(3-boronopropyl)-4-(methylamino)pyrrolidine-2-carboxylic acid] | 20.1
CCN[C@H]1CN[C@H](C(=O)O)[C@@H]1CCCB(O)O [Example 30, (2S,3R,4R)-3-(3-boronopropyl)-4-(ethylamino)pyrrolidine-2-carboxylic acid] | 84.5
NCCN[C@H]1CN[C@H](C(=O)O)[C@@H]1CCCB(O)O [Example 31, (2S,3R,4R)-4-((2-aminoethyl)amino)-3-(3-boronopropyl)pyrrolidine-2-carboxylic acid] | 6.69
NCC1CN[C@H](C(=O)O)C1CCCB(O)O (stereo partly drawn) [Example 34, (2S)-4-(aminomethyl)-3-(3-boronopropyl)pyrrolidine-2-carboxylic acid] | 3450
CO[C@H]1CN[C@H](C(=O)O)[C@@H]1CCCB(O)O [Example 36, (2S,3S,4R)-3-(3-boronopropyl)-4-methoxypyrrolidine-2-carboxylic acid] | 46.1
CC(C)[C@H](N)C(=O)N[C@H]1CN[C@H](C(=O)O)[C@@H]1CCCB(O)O [Example 37, (2S,3R,4R)-4-((S)-2-amino-3-methylbutanamido)-3-(3-boronopropyl)pyrrolidine-2-carboxylic acid] | 2.09
CC(C)(C)[C@H](N)C(=O)N[C@H]1CN[C@H](C(=O)O)[C@@H]1CCCB(O)O [Example 38, (2S,3R,4R)-4-((S)-2-amino-3,3-dimethylbutanamido)-3-(3-boronopropyl)pyrrolidine-2-carboxylic acid] | 0.818
CC(C)(O)[C@H](N)C(=O)N[C@H]1CN[C@H](C(=O)O)[C@@H]1CCCB(O)O [Example 39, (2S,3R,4R)-4-((S)-2-amino-3-hydroxy-3-methylbutanamido)-3-(3-boronopropyl)pyrrolidine-2-carboxylic acid] | 10.2
N[C@H](C(=O)N[C@H]1CN[C@H](C(=O)O)[C@@H]1CCCB(O)O)C1CCCC1 [Example 40, (2S,3R,4R)-4-((S)-2-amino-2-cyclopentylacetamido)-3-(3-boronopropyl)pyrrolidine-2-carboxylic acid] | 0.778
C[C@H](N)C(=O)N[C@H]1CN[C@H](C(=O)O)[C@@H]1CCCB(O)O [Example 41, (2S,3R,4R)-4-((S)-2-aminopropanamido)-3-(3-boronopropyl)pyrrolidine-2-carboxylic acid] | 13.6
CC(C)C[C@H](N)C(=O)N[C@H]1CN[C@H](C(=O)O)[C@@H]1CCCB(O)O [Example 42, (2S,3R,4R)-4-((S)-2-amino-4-methylpentanamido)-3-(3-boronopropyl)pyrrolidine-2-carboxylic acid] | 1.58
CN[C@H](C(=O)N[C@H]1CN[C@H](C(=O)O)[C@@H]1CCCB(O)O)C(C)C [Example 43, (2S,3R,4R)-3-(3-boronopropyl)-4-((S)-3-methyl-2-(methylamino)butanamido)pyrrolidine-2-carboxylic acid] | 2.98
CC[C@@H](C)[C@H](N)C(=O)N[C@H]1CN[C@H](C(=O)O)[C@@H]1CCCB(O)O [Example 44, (2S,3R,4R)-4-((2S,3R)-2-amino-3-methylpentanamido)-3-(3-boronopropyl)pyrrolidine-2-carboxylic acid] | 2
CC[C@H](C)[C@H](N)C(=O)N[C@H]1CN[C@H](C(=O)O)[C@@H]1CCCB(O)O [Example 45, (2S,3R,4R)-4-((2S,3S)-2-amino-3-methylpentanamido)-3-(3-boronopropyl)pyrrolidine-2-carboxylic acid] | 2
CC(C)[C@@H](N)C(=O)N[C@H]1CN[C@H](C(=O)O)[C@@H]1CCCB(O)O [Example 46, (2S,3R,4R)-4-((R)-2-amino-3-methylbutanamido)-3-(3-boronopropyl)pyrrolidine-2-carboxylic acid] | 35.4
CC(C)[C@](C)(N)C(=O)N[C@H]1CN[C@H](C(=O)O)[C@@H]1CCCB(O)O [Example 47, (2S,3R,4R)-4-((S)-2-amino-2,3-dimethylbutanamido)-3-(3-boronopropyl)pyrrolidine-2-carboxylic acid] | 29
N[C@H](C(=O)N[C@H]1CN[C@H](C(=O)O)[C@@H]1CCCB(O)O)C1Cc2ccccc2C1 [Example 48, (2S,3R,4R)-4-((S)-2-amino-2-(2,3-dihydro-1H-inden-2-yl)acetamido)-3-(3-boronopropyl)pyrrolidine-2-carboxylic acid] | 2
O=C(N[C@H]1CN[C@H](C(=O)O)[C@@H]1CCCB(O)O)[C@@H]1CCCN1 [Example 49, (2S,3R,4R)-3-(3-boronopropyl)-4-((S)-pyrrolidine-2-carboxamido)pyrrolidine-2-carboxylic acid] | 13

SMILES | IC50 [nM]
CC(=O)N[C@H]1CN[C@H](C(=O)O)[C@@H]1CCCB(O)O [Example 50, (2S,3R,4R)-4-acetamido-3-(3-boronopropyl)pyrrolidine-2-carboxylic acid] | 247
C[C@H](N)C(=O)N(C)[C@H]1CN[C@H](C(=O)O)[C@@H]1CCCB(O)O [Example 51, (2S,3S,4R)-4-((S)-2-amino-N-methylpropanamido)-3-(3-boronopropyl)pyrrolidine-2-carboxylic acid] | 985
O=C(O)[C@H]1NCCO[C@H]1CCCB(O)O [Example 52, (2S,3S)-2-(3-boronopropyl)morpholine-3-carboxylic acid] | 211
O=C(O)[C@@]1(CCO)NCC[C@H]1CCCB(O)O [Example 53, (2S,3R)-3-(3-boronopropyl)-2-(2-hydroxyethyl)pyrrolidine-2-carboxylic acid] | 1480
CN(C)CC[C@]1(C(=O)O)NCC[C@H]1CCCB(O)O [Example 54, (2S,3R)-3-(3-boronopropyl)-2-(2-(dimethylamino)ethyl)pyrrolidine-2-carboxylic acid] | 31.5
O=C(O)[C@@]1(CCN2CCCC2)NCC[C@H]1CCCB(O)O [Example 55] | 15.9
O=C(O)[C@@]1(CCN2CCC2)NCC[C@H]1CCCB(O)O [Example 56] | 20.8
CN(C)C[C@]1(C(=O)O)NCC[C@H]1CCCB(O)O [Example 58, (2R,3R)-3-(3-boronopropyl)-2-((dimethylamino)methyl)pyrrolidine-2-carboxylic acid] | > 10000
O=C(O)[C@@]1(CO)NCC[C@H]1CCCB(O)O [Example 59A, (2R,3R)-3-(3-boronopropyl)-2-(hydroxymethyl)pyrrolidine-2-carboxylic acid] | 311
NC[C@@H]1C[C@@H](CCCB(O)O)[C@@H](C(=O)O)N1 [Example 60A, (2S,3R,5S)-5-(aminomethyl)-3-(3-boronopropyl)pyrrolidine-2-carboxylic acid] | 29.5
NC[C@H]1C[C@H](CCCB(O)O)[C@H](C(=O)O)N1 [Example 60B, (2R,3S,5R)-5-(aminomethyl)-3-(3-boronopropyl)pyrrolidine-2-carboxylic acid] | 1780
CN(C)C[C@@H]1C[C@@H](CCCB(O)O)[C@@H](C(=O)O)N1 [Example 61, (2S,3R,5S)-3-(3-boronopropyl)-5-((dimethylamino)methyl)pyrrolidine-2-carboxylic acid] | 439
CNC[C@@H]1C[C@@H](CCCB(O)O)[C@@H](C(=O)O)N1 [Example 62, (2S,3R,5S)-3-(3-boronopropyl)-5-((methylamino)methyl)pyrrolidine-2-carboxylic acid] | 34.9
O=C(O)[C@H]1N[C@H](CO)C[C@H]1CCCB(O)O [Example 63, (2S,3R,5S)-3-(3-boronopropyl)-5-(hydroxymethyl)pyrrolidine-2-carboxylic acid] | 7.71
C[C@@H]1C[C@@H](CCCB(O)O)[C@@H](C(=O)O)N1 [Example 64, (2S,3R,5R)-3-(3-boronopropyl)-5-methylpyrrolidine-2-carboxylic acid] | 6.62
O=C(O)[C@H]1NC[C@@]1(CO)CCCB(O)O [Example 65, (2S,3S)-3-(3-boronopropyl)-3-(hydroxymethyl)azetidine-2-carboxylic acid] | 13
CN1C[C@@](CO)(CCCB(O)O)[C@H]1C(=O)O [Example 66, (2S,3S)-3-(3-boronopropyl)-3-(hydroxymethyl)-1-methylazetidine-2-carboxylic acid] | 269
NC[C@@]1(CCCB(O)O)CN[C@@H]1C(=O)O [Example 67, (2S,3S)-3-(aminomethyl)-3-(3-boronopropyl)azetidine-2-carboxylic acid] | 8
